From US6417235B2, “Method and use of α-amino-β-mercapto-ethane derivatives as dicarbonyl scavengers for treatment of conditions resulting from protein, lipid, and DNA damage” (University of Kentucky Research Foundation, priority 2000, dated 2002)

Assays:
[1] = Alpha-dicarbonyl trapping followed by HPLC
Protocol: Phenylglyoxal (10 mM) and D-penicillamine (20 mM) were reacted in 50 mM KH2PO4 buffer, pH 7.4 at room temperature. The progress of he reaction was monitored by HPLC analysis of reaction aliquots at 254 nm. After 40 minutes reaction time more than 90% conversion of the phenylglyoxal peak into a single product peak of higher retention time was observed. […] UV detection was at 254 nm. As shown by the HPLC analysis of the reaction system shown in FIG. 7, phenyglyoxal is fully reacted with D-penicillamine within 5 minutes. […] The reaction kinetics were studied at a phenylglyoxal concentration of […] and at 250 and 500 micromolar carbonyl scavenger concentration (D-penicillamine, aminoguanidine). Over the course of the reaction, aliquots were analyzed by HPLC. In the case of D-penicillamine, which required shorter sampling periods, reaction aliquots were taken every 20 seconds, and kept on dry ice until analysis. The initial reaction rates of phenylglyoxal with the test compounds were monitored by following the disappearance of phenylglyoxal over time. […] The measured first order rate constant (kst) was then used to calculate the second order rate constant (by applying the following equation: […]-carbonyl scavenger}. The calculated second order rate constants determined at the two reactant ratios were in good agreement.

[2] = tested on: ΦX-174 DNA; test: AGE-BSA photosensitized cleavage of ΦX-174 DNA under solar simulated light; type: biochemical; conditions: solar simulated light, AGE-BSA as photosensitizer
Protocol: Glycated Proteins as Photosensitizers of DNA Damage in Skin Photoaging. D-Penicillamine inhibits genotoxic consequences of AGE-photosensitization. Accumulation of AGEs on dermal elastin and collagen occurs during normal skin aging in humans. The hypothesis was tested that the intra- and extracellular accumulation of the complex yellow-brown AGE-chromophores contributes to skin aging and carcinogenesis induced by chronic exposure to sunlight. As a possible molecular mechanisms for a detrimental synergism of AGE-formation and exposure to sunlight, photosensitized DNA damage by AGEs was assessed in a simple in vitro system. Irradiation of covalently closed circular ΦX-174 DNA with increasing doses of solar simulated light (SSL) in the presence of AGE-BSA was used to detect photosensitized DNA nicking as a measure of DNA photodamage (panel A). […] Addition of several antioxidants modulated the photosensitization effect (panel C).

[3] = tested on: HaCat keratinocytes; test: AGE-photosensitization of human skin cells, growth inhibition under solar simulated light; conditions: 10 mM
Protocol: Human HaCat keratinocytes growing on 35 mm dishes were exposed to solar simulated light (1.2 kJ/m^2 UVB and 23 kJ/m^2 UVA) in the presence or absence of AGE-BSA as a model of a protein with advanced glycation endproducts. Control populations were treated in exactly the same way as described above, but were not exposed to solar simulated light (SSL).

[4] = tested on: CF-3 cells; test: Protection of fibroblasts from alpha-dicarbonyl stress (cell count after 72 hour exposure); type: cell-based, human
Protocol: (§1) A continuous cell line of human epidermal keratinocytes (HaCat cells) and human dermal fibroblasts (CF-3 cells) were routinely cultured in 75 cm^2 flasks and split biweekly in DMEM containing 10% fetal bovine serum and kept in a humidified atmosphere containing 5% CO2 at 37° C. Human keratinocytes were split using 5% trypsin and human fibroblasts employed 1% trypsin. All experiments were carried out on 6 well dishes (Falcon USA), where keratinocytes were seeded at 2×10^4 cells/well and fibroblasts at 4×10^4 cells/well. Cells were left overnight to attach to the plate and the appropriate carbonyl scavenger was then added 15 minutes prior to the addition of the alpha-dicarbonyl stress compounds glyoxal or methylglyoxal. Following 72 hour exposure to the stress compound, cells were counted with a Coulter counter. the protective effects of the alpha-dicarbonyl scavengers were assessed by comparing the growth of untreated cells with cells exposed to alpha-carbonyl stress +/− test compound.

[5] = tested on: histone H1; test: Histone H1 crosslinking by 12% SDS-PAGE with silver staining; type: biochemical, calf; conditions: 5 mM; histone H1, ADP-ribose reaction system
Protocol: The following screening scheme is used (see Table 1): AGE-fluorescence is determined at the beginning and after five days of incubation. Test compounds that are inherently fluorescent (designated false negatives) were identified by the initial fluorescence measurement (See Table 1, NADH for example). Since these are compounds of uncertain activity, they are diverted directly to the second stage of the screen. Aminoguanidine, a known glycation inhibitory agent, was used as a positive control for suppression of the increase on AGE-fluorescence. After five days incubation and plate reading, fluorescence quenchers (designated false positives) are excluded by measuring the quenching activity of the test compound by addition of AGE modified protein having known fluorescence activity to one microtiter plate well containing test compound in the complete reaction mixture. For this, AGE-BSA is used as the AGE-type fluorescence standard. This AGE-BSA test excludes false positives compounds that function by fluorescence quenching. If fluorescence quenching occurs the test compound is excluded from further screening. […] The protein is visualized by silver staining of the gel. […] A compound that passes the first and second stage of the screen is considered a glycation inhibitor and is further evaluated for biological activity as described below. […]

[6] = tested on: HaCat cells; test: Protection of keratinocytes from alpha-dicarbonyl stress (cell count after 72 hour exposure); type: cell-based, human
Protocol: as §1

SMILES: CC(C)(S)[C@@H](N)C(=O)O [D-Penicillamine]
- time until phenylglyoxal is fully reacted ([1]; HPLC analysis, FIG. 7): ≤ 5 min
- conversion of the phenylglyoxal peak into a single product peak ([1]; phenylglyoxal 10 mM, D-penicillamine 20 mM, pH 7.4, room temperature, after 40 minutes): more than 90%
- effect on AGE-BSA photosensitized DNA cleavage [2]: inhibited the photosensitization effect of AGE-BSA in a dose dependent relationship
- toxic effects on HaCat cells [3]: no toxic effects
- reversal of the photosensitization effect ([3]; AGE-BSA with SSL): completely reversed the photosensitization effect
- protection from alpha-dicarbonyl stress ([4]; FIG. 14): protection
- protection from methylglyoxal induced alpha-dicarbonyl stress ([4]; FIG. 15): protection
- inhibition of histone H1 crosslinking [5]: inhibit histone H1 crosslinking
- protection from alpha-dicarbonyl stress ([6]; FIG. 14): protection
- protection from methylglyoxal induced alpha-dicarbonyl stress ([6]; FIG. 15): protection
